# In patent US6207399A, “Methods of determining endogenous thrombin potential (ETP) and thrombin substrates for use in said methods” (Hemker; Hendrik Coenraad, priority 1995, dated 2001):
# Peptide text beside a SMILES is read from it. * marks the point of attachment. pNA = O=[N+]([O-])c1ccc(N*)cc1
# How the values were obtained:
# thrombin = details: Svendsen et al; cited from earlier work
# [1] = tested on: thrombin generation in tissue factor triggered plasma; assay: Manual determination of thrombin generation in plasma (subsampling method) and calculated prothrombinase activity; format: biochemical, human
# Method: Manual determination of thrombin generation in plasma: Extrinsic pathway: To 480 μL defibrinated plasma were added: 172 μL buffer A which contains the substrate at concentrations between 0 to 2000 μM and 20 μL of a 54 μM phospholipid solution (final concentration: 1.5 μM). After incubation of 4 min at 37° C., 24 μL tissue factor (undiluted) was added. Thrombin formation started at zero time by adding 24 μL of a 0.5 M CaCl2 solution (final concentration: 16.67 mM). At regular time intervals of 12 s samples of 10 μL were subsampled as described above. From the amidolytic activities thus obtained, the thrombin generation curve can be drawn. […] Intrinsic pathway: To 480 μL defibrinated plasma were added: 168 μL buffer A which contains the substrate at concentrations between 0 to 1000 μM and 48 μL Actin FS (undiluted). This mixture was intensively mixed and incubated for 4 min at 37° C. Thrombin generation was started at zero time by adding 24 μL of a 0.5 M CaCl2 solution (final concentration: 16.67 mM).
# Influence of the substrate on the prothrombinase-complex: With the obtained decay constants and from the curves obtained by the subsampling method we calculated the course of prothrombin conversion and the course of prothrombinase concentration.
# Manual determination of thrombin generation in plasma: Extrinsic pathway: To 480 μL defibrinated plasma were added: 172 μL buffer A which contained the substrate at concentrations between 0 to 2000 μM and 20 μL of a 54 μM phospholipid solution (final concentration: 1.5 μM). After incubation for 4 min at 37° C., 24 μL tissue factor (undiluted) was added. Thrombin formation started at zero time by adding 24 μL of a 0.5 M CaCl2 solution (final concentration: 16.67 mM). At regular time intervals of 12 s samples of 10 μL were subsampled as described above. From the amidolytic activities thus obtained, the thrombin generation curve can be drawn.
# Influence of the substrate on the prothrombinase-compzex: With the obtained decay constants and from the curves obtained by the subsampling method we calculated the course of prothrombin conversion and the course of prothrombinase concentration.
# factor Xa = target: T1, factor Xa (Homo sapiens, UniProt P00742); assay: Kinetics of hydrolysis of substrates by human factor Xa in buffer A at 37° C. (Example 2, Table 2); format: biochemical; design: key to kcat: NH: not hydrolyzed by factor Xa
# T1 construct: human factor Xa samples; gift of Dr. T. Lindhout (University of Limburg, Maastricht)
# Summary of the method: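 p-Nitroaniline release was followed at 405 nm (dual wavelength 405-546 nm) in buffer A at 37° C, with substrate at 1 to 2000 μM (at least six levels) preincubated 5 min before enzyme at 0.5 to 100 nM. Km and kcat came from initial velocities fitted to Michaelis-Menten by linear regression, from one or two experiments.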
# T1 sequence (P00742 41-179 limits assumed): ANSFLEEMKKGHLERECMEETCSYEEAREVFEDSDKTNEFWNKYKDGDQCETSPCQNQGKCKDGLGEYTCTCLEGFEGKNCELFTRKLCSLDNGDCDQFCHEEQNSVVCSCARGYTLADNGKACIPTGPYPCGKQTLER
# T1 sequence (P00742 235-488 limits assumed): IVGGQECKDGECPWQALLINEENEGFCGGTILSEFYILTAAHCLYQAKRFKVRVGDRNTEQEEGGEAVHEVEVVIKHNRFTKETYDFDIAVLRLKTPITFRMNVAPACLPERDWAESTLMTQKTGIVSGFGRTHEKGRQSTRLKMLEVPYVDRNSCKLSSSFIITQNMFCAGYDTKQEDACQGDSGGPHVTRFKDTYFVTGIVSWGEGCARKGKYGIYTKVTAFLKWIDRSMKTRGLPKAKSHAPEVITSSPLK
smiles,measurement,setting,value
CC(C)[C@H](N)C(=O)N[C@@H](CCCNC(=N)N)C(=O)Nc1ccc([N+](=O)[O-])cc1.Cl.Cl [2HCl.H-Val-Arg-pNA] (H-Val-Arg-pNA),factor by which poorer substrate for thrombin than Benzoyl-Phe-Val-Arg-p-nitroanilide,thrombin,≥ 100
same,"k2,M : k2 determined by the subsampling method",[1]; [S] 200 μM in plasma,0.234 min⁻¹
same,"k2,M : k2 determined by the subsampling method",[1]; [S] 500 μM in plasma,0.207 min⁻¹
same,"k2,M : k2 determined by the subsampling method",[1]; [S] 1000 μM in plasma,0.199 min⁻¹
same,influence on the prothrombinase complex / coagulation cascade,[1]; calculated from decay constants and manual thrombin generation curves,clearly decreases its concentration
same,kcat,factor Xa,NH
